Laboratory results taken from patent US11667678B2, “Peptides for the treatment of COVID-19” (priority 2019, dated 2023).

Experiments:
Type in all cases: cell-based
[1] = test system: human A549 lung cells challenged with UK variant (Alpha or N501Y) SARS-CoV-2 spike S1
[2] = test system: human A549 lung cell line stimulated with Omicron variant SARS-CoV-2 spike S1
[3] = test system: human A549 lung cells challenged with Delta variant SARS-CoV-2 spike S1
[4] = test system: human A549 lung cells challenged with South Africa variant (E484K) SARS-CoV-2 spike S1

Question: For `O=C(O)c1ccc(O)cc1` [4HB, 4-hydroxybenzoate], which “IL-6 promoter-driven luciferase activity (reporter activity)” value (from here on “IL-6 promoter-driven luciferase activity”) [1] is on record?
Answer: Its value is “significant inhibition”.

Question: What about the “Omicron variant spike S1-induced expression of TNFα and IL-1β (mRNA and promoter-luciferase activity)” value [2] of the same molecule?
Answer: Its value is “Significant inhibition”.

Question: And the “IL-6 promoter-driven luciferase activity” value [3]?
Answer: The value was “significant inhibition”.

Question: And the “IL-6 promoter-driven luciferase activity” value [4]?
Answer: The value was “significant inhibition”.

Question: Which “IL-6 promoter-driven luciferase activity” value [1] does the source give for `CC(C)=CCO` [prenol] here?
Answer: The value was “significant inhibition”.

Question: What about the “Omicron variant spike S1-induced expression of TNFα and IL-1β (mRNA and promoter-luciferase activity)” value [2] of the same molecule?
Answer: Its value is “Significant inhibition”.

Question: And the “IL-6 promoter-driven luciferase activity” value [3]?
Answer: Its value is “significant inhibition”.

Question: And the “IL-6 promoter-driven luciferase activity” value [4]?
Answer: Its value is “significant inhibition”.

Question: Which results are given for EDLFYQ (SPIDAR peptide) [wtSPIDAR]?
Answer: IL-6 promoter-driven luciferase activity (reporter activity) [1]: significant inhibition; Omicron variant spike S1-induced expression of TNFα and IL-1β (mRNA and promoter-luciferase activity) [2]: Significant inhibition; IL-6 promoter-driven luciferase activity (reporter activity) [3]: significant inhibition; IL-6 promoter-driven luciferase activity (reporter activity) [4]: significant inhibition
